Test results taken from PMC10525312, “Identification of a Novel Bioactive Peptide Derived from Frozen Chicken Breast Hydrolysate and the Utilization of Hydrolysates as Biopreservatives” (Biology, 2023).

Legend:
[1] = commercial food antioxidants; cited from earlier work
Text: Free radicals can be produced as a result of lipid oxidation, causing major health issues and having a negative impact on food quality. One of the solutions to prevent lipid oxidation is the use of protein hydrolysates.

ACE = conditions: peptides after in vitro gastrointestinal digestion of chicken meat; read-out: ACE inhibitory activity IC50; cited from earlier work
Text: The ACE inhibitory activity of C25 was more po ...

[2] = test system: Pseudomonas putida ATCC 12633^T; test: MIC, broth microdilution assay, Pseudomonas putida; type: cell-based; conditions: C25, Luria Bertani medium, OD 620 nm, twofold dilutions
Text: (§1) The following indicator bacteria were used to determine the minimum inhibitory concentrations (MICs) as described by Wiegand et al. and Maky and Zendo [14] by using a broth microdilution assay. Weizmannia (Bacillus) coagulans JCM 2257^T, Salmonella enterica serovar Typhimurium NBRC 13243^T, Listeria innocua ATCC 33090^T, Proteus vulgaris F24B [24] and Escherichia coli JM109 were cultivated in Tryptic Soy Broth (BD, Sparks, MD, USA) supplemented with 0.6% yeast extract. Enterococcus faecalis JCM 5803^T was cultivated in MRS medium (Oxoid, Basingstoke, UK), while Pseudomonas putida ATCC 12633^T was cultivated in Luria Bertani medium (BD). Briefly, the bacterial inhibition was assessed at an optical density at 620 nm using an Infinite F200 Pro microplate reader (Tecan, Männedorf, Switzerland) after the indicator strains were cultured with twofold serial dilutions of chicken hydrolysates and C25.

[3] = DPPH antioxidant activity assay (DPPH antioxidant assay kit); type: biochemical; conditions: 25 °C for 30 min in the dark, absorbance 450 nm
Protocol: The antioxidant activity of the chicken hydrolysate and C25 was assessed utilizing a DPPH antioxidant assay kit (Dojindo Laboratories) as described in the instructions provided by the manufacturer and as elaborated by Maky and Zendo [14]. Briefly, 20 µL of the investigated samples was applied to a microtiter plate and 80 µL of assay buffer, 100 µL of ethanol and 100 µL of DPPH working solution were mixed with the samples. Then, the plate was incubated at 25 °C for 30 min in the dark. The absorbance was measured by using a Sunrise microplate absorbance reader (Tecan) at 450 nm.

[4] = test system: Enterococcus faecalis JCM 5803^T; test: MIC, broth microdilution assay, Enterococcus faecalis; type: cell-based; conditions: C25, MRS medium, OD 620 nm, twofold dilutions
Text: as §1

[5] = test system: Salmonella enterica serovar Typhimurium NBRC 13245^T; test: MIC, broth microdilution assay, Salmonella Typhimurium; type: cell-based; conditions: C25, Tryptic Soy Broth + 0.6% yeast extract, OD 620 nm, twofold dilutions
Text: as §1

[6] = test system: Weizmannia coagulans JCM 2257^T; test: MIC, broth microdilution assay, Weizmannia coagulans; type: cell-based, Weizmannia (Bacillus) coagulans; conditions: C25, Tryptic Soy Broth + 0.6% yeast extract, OD 620 nm, twofold dilutions
Text: as §1

[7] = test system: Listeria innocua ATCC 33090^T; test: MIC, broth microdilution assay, Listeria innocua; type: cell-based; conditions: C25, Tryptic Soy Broth + 0.6% yeast extract, OD 620 nm, twofold dilutions
Text: as §1

Compound: COc1ccc(O)c(C(C)(C)C)c1 [Butylated hydroxyanisole (BHA), Butylated hydroxyanisole]
- Antioxidant activity IC50 [1]: 112.05 µg/mL

Compound: Cc1cc(C(C)(C)C)c(O)c(C(C)(C)C)c1 [butylated hydroxytoluene (BHT), butylated hydroxytoluene]
- Antioxidant activity IC50 [1]: 202.35 µg/mL

Compound: ELFTT
- IC50 (ACE): 6.35 µM

Compound: H-IHAEEILDIRGNPTVEVDLHTAKGH-OH [C25]
- MIC (class symbol) [2]: NA ^2 (NA ^2 > 24 μg/mL)
- Antioxidant activity (in words) [3]: no activity was observed
- MIC (class symbol) [4]: NA ^2 (NA ^2 > 24 μg/mL)
- MIC (class symbol) [5]: NA ^2 (NA ^2 > 24 μg/mL)
- MIC (class symbol) [6]: NA ^2 (NA ^2 > 24 μg/mL)
- MIC (class symbol) [7]: NA ^2 (NA ^2 > 24 μg/mL)

Compound: KPLL
- IC50 (ACE): 12 µM
